Literature values, collected in patent US20150031774A1, “RASAGILINE ORALLY DISINTEGRATING COMPOSITIONS” (priority 2004, published 2015).

Biological target: 9-form of the enzyme monoamine oxidase (Homo sapiens, UniProt P27338)
Conditions: prior-art patents cited in background

Chain of 9-form of the enzyme monoamine oxidase (P27338 whole entry): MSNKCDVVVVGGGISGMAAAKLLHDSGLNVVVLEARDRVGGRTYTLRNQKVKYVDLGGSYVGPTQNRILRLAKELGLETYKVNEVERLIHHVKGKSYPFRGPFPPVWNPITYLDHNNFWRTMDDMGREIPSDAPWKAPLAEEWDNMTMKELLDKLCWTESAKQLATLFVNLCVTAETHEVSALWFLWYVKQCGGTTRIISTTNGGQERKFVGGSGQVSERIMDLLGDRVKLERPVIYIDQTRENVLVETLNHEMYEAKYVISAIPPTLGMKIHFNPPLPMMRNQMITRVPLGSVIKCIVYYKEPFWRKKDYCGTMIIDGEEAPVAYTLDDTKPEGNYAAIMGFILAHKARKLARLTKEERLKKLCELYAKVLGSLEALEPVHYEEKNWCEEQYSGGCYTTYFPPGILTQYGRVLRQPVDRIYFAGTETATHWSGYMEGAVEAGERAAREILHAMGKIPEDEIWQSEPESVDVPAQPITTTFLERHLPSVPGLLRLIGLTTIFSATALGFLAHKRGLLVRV

selectivity of monoamine oxidase inhibition: selective inhibitor
SMILES: C#CCN[C@@H]1CCc2ccccc21 [Rasagiline, R(+)-propargyl-1-aminoindan]
